Laboratory results: PubChem BioAssay (NCI)
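Method: 48-hour compound exposure of cells in 96-well plates, five concentrations, linear interpolation of endpoints. GI50 is the concentration that inhibits growth by half. TGI: concentration producing complete growth inhibition.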

Key:
Experiment in all cases: DTP human tumour cell line panel, 48 h
786-0 renal = system: 786-0 renal
A498 renal = system: A498 renal
A549 NSCLC = system: A549 NSCLC
ACHN renal = system: ACHN renal
BT-549 breast = system: BT-549 breast
CAKI-1 renal = system: CAKI-1 renal
CCRF-CEM leukemia = system: CCRF-CEM leukemia
COLO 205 colon = system: COLO 205 colon
DU-145 prostate = system: DU-145 prostate
HCT-116 colon = system: HCT-116 colon
HCT-15 colon = system: HCT-15 colon
HOP-62 NSCLC = system: HOP-62 NSCLC
HOP-92 NSCLC = system: HOP-92 NSCLC
HS 578T breast = system: HS 578T breast
HT29 colon = system: HT29 colon
IGROV1 ovarian = system: IGROV1 ovarian
KM12 colon = system: KM12 colon
LOX IMVI melanoma = system: LOX IMVI melanoma
M14 melanoma = system: M14 melanoma
MALME-3M melanoma = system: MALME-3M melanoma
MCF7 breast = system: MCF7 breast
MDA-MB-231 breast = system: MDA-MB-231 breast
MDA-MB-435 = system: MDA-MB-435
MOLT-4 leukemia = system: MOLT-4 leukemia
NCI-H226 lung = system: NCI-H226 lung
NCI-H23 lung = system: NCI-H23 lung
NCI-H460 lung = system: NCI-H460 lung
NCI-H522 lung = system: NCI-H522 lung
NCI/ADR-RES ovarian = system: NCI/ADR-RES ovarian
OVCAR-3 ovarian = system: OVCAR-3 ovarian
OVCAR-4 ovarian = system: OVCAR-4 ovarian
PC-3 prostate = system: PC-3 prostate
RPMI-8226 leukemia = system: RPMI-8226 leukemia
RXF 393 renal = system: RXF 393 renal
SF-268 CNS = system: SF-268 CNS
SF-295 CNS = system: SF-295 CNS
SF-539 CNS = system: SF-539 CNS
SK-MEL-28 melanoma = system: SK-MEL-28 melanoma
SK-MEL-5 melanoma = system: SK-MEL-5 melanoma
SK-OV-3 ovarian = system: SK-OV-3 ovarian
SN12C renal = system: SN12C renal
SNB-19 CNS = system: SNB-19 CNS
SR leukemia = system: SR leukemia
SW-620 colon = system: SW-620 colon
T-47D breast = system: T-47D breast
TK-10 renal = system: TK-10 renal
U251 CNS = system: U251 CNS
UACC-257 melanoma = system: UACC-257 melanoma
UACC-62 melanoma = system: UACC-62 melanoma
UO-31 renal = system: UO-31 renal
EKVX NSCLC = system: EKVX NSCLC
HCC-2998 colon = system: HCC-2998 colon
HL-60(TB) leukemia = system: HL-60(TB) leukemia
OVCAR-5 ovarian = system: OVCAR-5 ovarian
OVCAR-8 ovarian = system: OVCAR-8 ovarian
SK-MEL-2 melanoma = system: SK-MEL-2 melanoma
SNB-75 CNS = system: SNB-75 CNS

## C[C@]12CC[C@H]3[C@@H](CC=C4C[C@@H](N5CCCC5)CC[C@@]43C)[C@@H]1C/C(=C\c1ccc([N+](=O)[O-])cc1)[C@@H]2O
786-0 renal
  TGI: 17.9 µM
A498 renal
  TGI: 28.6 µM
A549 NSCLC
  TGI: 32.6 µM
ACHN renal
  TGI: 29.3 µM
BT-549 breast
  TGI: 26.7 µM
CAKI-1 renal
  TGI: 27.6 µM
CCRF-CEM leukemia
  TGI: 14.1 µM
COLO 205 colon
  TGI: 32.6 µM
DU-145 prostate
  TGI: 34.7 µM
HCT-116 colon
  TGI: 29.8 µM
HCT-15 colon
  TGI: 28.4 µM
HOP-62 NSCLC
  TGI: 32 µM
HOP-92 NSCLC
  TGI: 27.7 µM
HS 578T breast
  TGI: 40.3 µM
HT29 colon
  TGI: 27.4 µM
IGROV1 ovarian
  TGI: 28.2 µM
KM12 colon
  TGI: 33.2 µM
LOX IMVI melanoma
  TGI: 30.9 µM
M14 melanoma
  TGI: 30.2 µM
MALME-3M melanoma
  TGI: 32.1 µM
MCF7 breast
  TGI: 68.9 µM
MDA-MB-231 breast
  TGI: 30.2 µM
MDA-MB-435
  TGI: 31 µM
MOLT-4 leukemia
  TGI: 4.99 µM
NCI-H226 lung
  TGI: 36.2 µM
NCI-H23 lung
  TGI: 37.4 µM
NCI-H460 lung
  TGI: > 100 µM
NCI-H522 lung
  TGI: 32 µM
NCI/ADR-RES ovarian
  TGI: 43.4 µM
OVCAR-3 ovarian
  TGI: 31.5 µM
OVCAR-4 ovarian
  TGI: 25.4 µM
PC-3 prostate
  TGI: 88 µM
RPMI-8226 leukemia
  TGI: 38.5 µM
RXF 393 renal
  TGI: 57.8 µM
SF-268 CNS
  TGI: 40.1 µM
SF-295 CNS
  TGI: 96.7 µM
SF-539 CNS
  TGI: 32.4 µM
SK-MEL-28 melanoma
  TGI: 28.2 µM
SK-MEL-5 melanoma
  TGI: 28.3 µM
SK-OV-3 ovarian
  TGI: 30.1 µM
SN12C renal
  TGI: 27.5 µM
SNB-19 CNS
  TGI: 59.2 µM
SR leukemia
  TGI: 3.98 µM
SW-620 colon
  TGI: 36.6 µM
T-47D breast
  TGI: 46.9 µM
TK-10 renal
  TGI: 35.8 µM
U251 CNS
  TGI: 25.2 µM
UACC-257 melanoma
  TGI: 31.5 µM
UACC-62 melanoma
  TGI: 29.3 µM
UO-31 renal
  TGI: 28.4 µM

## O=C(O)CN(CCN(CC(=O)O)CC(=O)O)CCN(CC(=O)O)CC(=O)O
786-0 renal
  GI50: 2.54 µM
  TGI: 6.72 µM
A498 renal
  GI50: 1.86 µM
  TGI: 15.1 µM
A549 NSCLC
  GI50: 1.62 µM
  TGI: 3.5 µM
ACHN renal
  GI50: 2.59 µM
  TGI: 13.6 µM
BT-549 breast
  GI50: 2.77 µM
  TGI: 9.45 µM
CAKI-1 renal
  GI50: 3.58 µM
  TGI: 20.2 µM
CCRF-CEM leukemia
  GI50: 3.18 µM
  TGI: > 100 µM
COLO 205 colon
  GI50: 4.55 µM
  TGI: 16.5 µM
DU-145 prostate
  GI50: 2.94 µM
  TGI: 8.82 µM
EKVX NSCLC
  GI50: 3.26 µM
  TGI: 9.91 µM
HCC-2998 colon
  GI50: 4.42 µM
  TGI: 27 µM
HCT-116 colon
  GI50: 3.42 µM
  TGI: 12.7 µM
HCT-15 colon
  GI50: 3.67 µM
  TGI: 20.9 µM
HL-60(TB) leukemia
  GI50: 2.12 µM
  TGI: 5.01 µM
HOP-62 NSCLC
  GI50: 1.98 µM
  TGI: 5.07 µM
HOP-92 NSCLC
  GI50: 11.5 µM
  TGI: 79 µM
HS 578T breast
  GI50: 2.09 µM
  TGI: 56.7 µM
HT29 colon
  GI50: 3.99 µM
  TGI: 16.2 µM
KM12 colon
  GI50: 4.94 µM
  TGI: 37.6 µM
LOX IMVI melanoma
  GI50: 3.22 µM
  TGI: 11.6 µM
M14 melanoma
  GI50: 5.29 µM
  TGI: 21.5 µM
MCF7 breast
  GI50: 3.75 µM
  TGI: 22.1 µM
MDA-MB-231 breast
  GI50: 10.5 µM
  TGI: 87.6 µM
MDA-MB-435
  GI50: 3.94 µM
  TGI: 21.8 µM
MOLT-4 leukemia
  GI50: 2.57 µM
  TGI: 8.26 µM
NCI-H226 lung
  GI50: 4.65 µM
  TGI: 16.5 µM
NCI-H23 lung
  GI50: 2.45 µM
  TGI: 10.2 µM
NCI-H460 lung
  GI50: 2.49 µM
  TGI: 7.09 µM
NCI/ADR-RES ovarian
  GI50: 3.1 µM
  TGI: 13.7 µM
OVCAR-3 ovarian
  GI50: 3.51 µM
  TGI: 9.84 µM
OVCAR-4 ovarian
  GI50: 2.51 µM
  TGI: 7.51 µM
OVCAR-5 ovarian
  GI50: 4.01 µM
  TGI: 20 µM
OVCAR-8 ovarian
  GI50: 3.19 µM
  TGI: 14.8 µM
PC-3 prostate
  GI50: 5.46 µM
  TGI: > 100 µM
RXF 393 renal
  GI50: 2.07 µM
  TGI: 4.85 µM
SF-268 CNS
  GI50: 3.04 µM
  TGI: 10.8 µM
SF-295 CNS
  GI50: 3.25 µM
  TGI: 21.3 µM
SF-539 CNS
  GI50: 2.86 µM
  TGI: 7.98 µM
SK-MEL-2 melanoma
  GI50: 3.16 µM
  TGI: 9.8 µM
SK-MEL-28 melanoma
  GI50: 4.05 µM
  TGI: 17.2 µM
SK-MEL-5 melanoma
  GI50: 2.92 µM
  TGI: 9.07 µM
SK-OV-3 ovarian
  GI50: 3.19 µM
  TGI: 8.62 µM
SN12C renal
  GI50: 2.8 µM
  TGI: 13.9 µM
SNB-19 CNS
  GI50: 5.18 µM
  TGI: 61.6 µM
SNB-75 CNS
  GI50: 1.99 µM
  TGI: 7.86 µM
SW-620 colon
  GI50: 3.85 µM
  TGI: 19 µM
T-47D breast
  GI50: 3.74 µM
  TGI: 14.5 µM
TK-10 renal
  GI50: 2.87 µM
  TGI: 7.52 µM
U251 CNS
  GI50: 4.14 µM
  TGI: 21.2 µM
UACC-257 melanoma
  GI50: 4.35 µM
  TGI: 18.8 µM
UACC-62 melanoma
  GI50: 3.35 µM
  TGI: 15.9 µM
